Source: BindingDB's records for patent US20240018157 (Schrödinger, 2024)

Target: T1, Mucosa-associated lymphoid tissue lymphoma translocation protein 1 (Homo sapiens, UniProt Q9UDY8)
T1 sequence (Q9UDY8 whole entry): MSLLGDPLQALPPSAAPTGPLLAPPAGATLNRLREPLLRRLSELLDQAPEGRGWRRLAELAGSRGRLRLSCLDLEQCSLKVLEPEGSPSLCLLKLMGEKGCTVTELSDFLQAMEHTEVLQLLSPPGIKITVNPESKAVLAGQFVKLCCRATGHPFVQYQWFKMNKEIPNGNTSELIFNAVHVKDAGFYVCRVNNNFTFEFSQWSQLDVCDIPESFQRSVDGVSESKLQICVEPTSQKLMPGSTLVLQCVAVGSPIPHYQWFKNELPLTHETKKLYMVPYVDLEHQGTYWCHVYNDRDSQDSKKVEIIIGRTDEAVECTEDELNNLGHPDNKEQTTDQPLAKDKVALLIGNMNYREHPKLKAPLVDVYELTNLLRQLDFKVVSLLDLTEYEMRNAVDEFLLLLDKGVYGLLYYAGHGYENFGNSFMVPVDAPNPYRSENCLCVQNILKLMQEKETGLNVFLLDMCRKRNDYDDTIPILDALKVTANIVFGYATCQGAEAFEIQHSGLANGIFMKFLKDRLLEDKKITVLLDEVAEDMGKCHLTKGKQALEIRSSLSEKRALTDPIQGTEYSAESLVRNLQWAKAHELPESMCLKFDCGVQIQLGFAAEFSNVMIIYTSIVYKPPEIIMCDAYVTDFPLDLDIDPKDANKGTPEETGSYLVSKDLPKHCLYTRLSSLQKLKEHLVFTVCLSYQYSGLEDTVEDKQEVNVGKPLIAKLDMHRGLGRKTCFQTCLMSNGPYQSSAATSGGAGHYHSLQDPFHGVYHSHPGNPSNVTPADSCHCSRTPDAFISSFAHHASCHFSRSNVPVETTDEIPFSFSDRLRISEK
Test: MALT1 Protease Assay 2
Description: Test compounds were dissolved in 100% DMSO at stock of 10 mM, with final DMSO concentration 0.1%. Test compounds were pre-incubated with MALT1 protein for 2 h at room temperature.

Row | SMILES | IC50 [nM]
1 | CC1(C)CN(C(=O)Nc2cnc(-n3nccn3)c(Cl)c2)c2cnc3cc(Cl)nn3c21 [US20240018157, Example 1] | 10 to 100
2 | C[C@@]1(C2CC2)CN(C(=O)Nc2cnc(-n3nccn3)c(Cl)c2)c2cnc3cc(Cl)nn3c21 [US20240018157, Example 4] | 10 to 100
3 | C[C@@]1(C(F)(F)F)CN(C(=O)Nc2ccnc(C(F)(F)F)c2)c2cnc3cc(Cl)nn3c21 [US20240018157, Example 27] | < 10
4 | C[C@@]1(C(F)(F)F)CN(C(=O)Nc2cnc(-n3ccnn3)c(C(F)F)c2)c2cnc3cc(Cl)nn3c21 [US20240018157, Example 36] | < 10
5 | C[C@@]1(C(F)(F)F)CN(C(=O)N[C@H]2CCCC(F)(F)C2)c2cnc3cc(Cl)nn3c21 [US20240018157, Example 53] | 100 to 1000
6 | C[C@@]1(C(F)(F)F)CN(C(=O)Nc2ccnc(C(F)F)c2)c2cnc3cc(Cl)nn3c21 [US20240018157, Example 60] | < 10
7 | COc1c(Cl)cc(NC(=O)N2C[C@@](C)(C(F)(F)F)c3c2cnc2cc(Cl)nn32)nc1O[C@H]1CCNC1 [US20240018157, Example 63] | < 10
8 | C[C@@]1(C(F)(F)F)CN(C(=O)Nc2cnnc(C(F)F)c2)c2cnc3cc(Cl)nn3c21 [US20240018157, Example 65] | 10 to 100
9 | COc1cnc(C(F)(F)F)cc1NC(=O)N1C[C@@](C)(C(F)(F)F)c2c1cnc1cc(Cl)nn21 [US20240018157, Example 66] | < 10
10 | C[C@H](O)c1cc(NC(=O)N2C[C@@](C)(C(F)(F)F)c3c2cnc2cc(Cl)nn32)cc(C(F)(F)F)n1 [US20240018157, Example 68] | 10 to 100
11 | C[C@@H](O)c1cc(NC(=O)N2C[C@@](C)(C(F)(F)F)c3c2cnc2cc(Cl)nn32)cc(C(F)(F)F)n1 [US20240018157, Example 69] | 10 to 100
12 | C[C@@]1(C(F)(F)F)CN(C(=O)Nc2cc(O[C@H]3CCNC3)nc(C(F)(F)F)c2)c2cnc3cc(Cl)nn3c21 [US20240018157, Example 75] | 10 to 100
13 | C[C@@]1(C(F)(F)F)CN(C(=O)Nc2cc(N=S(C)(C)=O)nc(C(F)(F)F)c2)c2cnc3cc(Cl)nn3c21 [US20240018157, Example 83] | < 10
14 | C[C@@]1(C(F)(F)F)CN(C(=O)Nc2cnc(-n3nccc3C#N)c(C#N)c2)c2cnc3cc(Cl)nn3c21 [US20240018157, Example 87] | < 10
15 | C[C@@]1(C(F)(F)F)CN(C(=O)Nc2ccnc(C(F)F)c2)c2cnc3cc(F)nn3c21 [US20240018157, Example 88] | 10 to 100
16 | C[C@]1(C(F)(F)F)CN(C(=O)Nc2ccnc(C(F)F)c2)c2cnc3cc(F)nn3c21 [US20240018157, Example 89] | 100 to 1000
17 | C[C@@]1(C(F)(F)F)CN(C(=O)Nc2cnc(-n3nccn3)c(C#N)c2)c2cnc3cc(F)nn3c21 [US20240018157, Example 91] | < 10

Row | SMILES | IC50 [nM]
18 | CCOc1cc(NC(=O)N2C[C@@](C)(C(F)(F)F)c3c2cnc2cc(Cl)nn32)cn(C(F)F)c1=O [US20240018157, Example 93] | 10 to 100
19 | C[C@@]1(C(F)(F)F)CN(C(=O)Nc2cnn(S(C)(=O)=O)c2)c2cnc3cc(Cl)nn3c21 [US20240018157, Example 94] | 100 to 1000
20 | COC[C@@]1(C(F)(F)F)CN(C(=O)Nc2cnc(-n3nccn3)c(Cl)c2)c2cnc3cc(Cl)nn3c21 [US20240018157, Example 97] | < 10
21 | C[C@@]1(C(F)(F)F)CN(C(=O)Nc2cc(C(F)F)no2)c2cnc3cc(Cl)nn3c21 [US20240018157, Example 103] | 100 to 1000
22 | C[C@@]1(C(F)(F)F)CN(C(=O)Nc2cnc(-n3nccn3)c(C(F)F)c2)c2cnc3cc(F)nn3c21 [US20240018157, Example 104] | < 10
23 | C[C@]1(C(F)(F)F)CN(C(=O)Nc2cnc(-n3nccn3)c(C(F)F)c2)c2cnc3cc(F)nn3c21 [US20240018157, Example 105] | 100 to 1000
24 | CN(C)C(=O)COc1ncc(NC(=O)N2C[C@@](C)(C(F)(F)F)c3c2cnc2cc(Cl)nn32)cc1C(F)F [US20240018157, Example 108] | > 1000
25 | C[C@@]1(C(F)(F)F)CN(C(=O)Nc2cnnc(C(F)F)c2)c2cnc3cc(F)nn3c21 [US20240018157, Example 114] | > 1000
26 | C[C@]1(C(F)(F)F)CN(C(=O)Nc2cnnc(C(F)F)c2)c2cnc3cc(F)nn3c21 [US20240018157, Example 115] | 10 to 100
27 | C[S@+]([O-])c1ccc(NC(=O)N2C[C@@](C)(C(F)(F)F)c3c2cnc2cc(Cl)nn32)cc1C(F)F [US20240018157, Example 116] | < 10
28 | C[S@@+]([O-])c1ccc(NC(=O)N2C[C@@](C)(C(F)(F)F)c3c2cnc2cc(Cl)nn32)cc1C(F)F [US20240018157, Example 117] | 100 to 1000
29 | Cc1cn2ncc3c(c2n1)[C@](C)(C(F)(F)F)CN3C(=O)Nc1cnnc(C(F)F)c1 [US20240018157, Example 119] | 10 to 100
30 | Cc1cn2ncc3c(c2n1)[C@@](C)(C(F)(F)F)CN3C(=O)Nc1cnnc(C(F)F)c1 [US20240018157, Example 120] | > 1000
31 | CN(C)C(=O)c1ncc(NC(=O)N2C[C@@](C)(C(F)(F)F)c3c2cnc2cc(Cl)nn32)cc1C(F)F [US20240018157, Example 122] | < 10
32 | Cc1cc(NC(=O)N2C[C@](C)(C(F)(F)F)c3c2cnc2cc(F)nn32)cnc1-n1nccn1 [US20240018157, Example 124] | > 1000
33 | Cc1cc(NC(=O)N2C[C@@](C)(C(F)(F)F)c3c2cnc2cc(F)nn32)cnc1-n1nccn1 [US20240018157, Example 125] | < 10

Next, values leading:

Row | IC50 [nM] | SMILES
34 | < 10 | COc1ncc(NC(=O)N2C[C@@](C)(C(F)(F)F)c3c2cnc2cc(Cl)nn32)cc1Cl [US20240018157, Example 18]
35 | < 10 | C[C@@]1(C(F)(F)F)CN(C(=O)Nc2cnc(-n3ncc(CO)n3)c(Cl)c2)c2cnc3cc(Cl)nn3c21 [US20240018157, Example 24]
36 | 10 to 100 | CN(C)Cc1cnn(-c2ncc(NC(=O)N3C[C@@](C)(C(F)(F)F)c4c3cnc3cc(Cl)nn43)cc2Cl)n1 [US20240018157, Example 29]
37 | < 10 | Cc1cc2ncc3c(n2n1)[C@](C)(C(F)(F)F)CN3C(=O)Nc1cnc(-n2nccn2)c(Cl)c1 [US20240018157, Example 32]
38 | < 10 | C[C@@]1(C(F)(F)F)CN(C(=O)Nc2cnc(-n3nccn3)c(C(F)F)c2)c2cnc3cc(Cl)nn3c21 [US20240018157, Example 35]
39 | < 10 | C[C@@]1(C(F)(F)F)CN(C(=O)Nc2cnc(-n3nccn3)c(Cl)c2)c2cnc3cc(F)nn3c21 [US20240018157, Example 39]
40 | 10 to 100 | C[C@@]1(C(F)(F)F)CN(C(=O)Nc2cnc([C@H](O)CO)c(Cl)c2)c2cnc3cc(Cl)nn3c21 [US20240018157, Example 55]
41 | 100 to 1000 | C[C@@]1(C(F)(F)F)CN(C(=O)Nc2cnc([C@@H](O)CO)c(Cl)c2)c2cnc3cc(Cl)nn3c21 [US20240018157, Example 56]
42 | < 10 | C[C@@]1(C(F)(F)F)CN(C(=O)Nc2cnc(-n3cc(CO)cn3)c(Cl)c2)c2cnc3cc(Cl)nn3c21 [US20240018157, Example 57]
43 | 100 to 1000 | C[C@@]1(C(F)(F)F)CN(C(=O)Nc2cnc(C3(O)CC3)c(Cl)c2)c2cnc3cc(Cl)nn3c21 [US20240018157, Example 67]
44 | < 10 | C[C@@]1(C(F)(F)F)CN(C(=O)Nc2cnc(-n3ncc([C@H](O)CO)n3)c(Cl)c2)c2cnc3cc(Cl)nn3c21 [US20240018157, Example 70]
45 | < 10 | C[C@@]1(C(F)(F)F)CN(C(=O)Nc2cnc(-n3ncc([C@@H](O)CO)n3)c(Cl)c2)c2cnc3cc(Cl)nn3c21 [US20240018157, Example 71]
46 | 10 to 100 | C[C@@H](O)COc1ncc(NC(=O)N2C[C@@](C)(C(F)(F)F)c3c2cnc2cc(Cl)nn32)cc1Cl [US20240018157, Example 74]
47 | < 10 | C[C@H](O)c1cnn(-c2ncc(NC(=O)N3C[C@@](C)(C(F)(F)F)c4c3cnc3cc(Cl)nn43)cc2Cl)n1 [US20240018157, Example 76]
48 | < 10 | C[C@@H](O)c1cnn(-c2ncc(NC(=O)N3C[C@@](C)(C(F)(F)F)c4c3cnc3cc(Cl)nn43)cc2Cl)n1 [US20240018157, Example 77]
49 | < 10 | COCc1cnn(-c2ncc(NC(=O)N3C[C@@](C)(C(F)(F)F)c4c3cnc3cc(Cl)nn43)cc2Cl)n1 [US20240018157, Example 79]
50 | < 10 | C[C@@]1(C(F)(F)F)CN(C(=O)Nc2cnc(N=S(C)(C)=O)c(Cl)c2)c2cnc3cc(Cl)nn3c21 [US20240018157, Example 85]
51 | < 10 | COc1cnn(-c2ncc(NC(=O)N3C[C@@](C)(C(F)(F)F)c4c3cnc3cc(Cl)nn43)cc2Cl)n1 [US20240018157, Example 92]
52 | 10 to 100 | COC[C@]1(C(F)(F)F)CN(C(=O)Nc2cnc(-n3nccn3)c(Cl)c2)c2cnc3cc(Cl)nn3c21 [US20240018157, Example 98]
53 | < 10 | C[C@H](O)c1cnn(-c2ncc(NC(=O)N3C[C@@](C)(C(F)(F)F)c4c3cnc3cc(Cl)nn43)cc2C(F)F)n1 [US20240018157, Example 126]
